Biological target: T1, human P2X4 (Homo sapiens, UniProt Q99571)
T1 sequence (Q99571 1-388): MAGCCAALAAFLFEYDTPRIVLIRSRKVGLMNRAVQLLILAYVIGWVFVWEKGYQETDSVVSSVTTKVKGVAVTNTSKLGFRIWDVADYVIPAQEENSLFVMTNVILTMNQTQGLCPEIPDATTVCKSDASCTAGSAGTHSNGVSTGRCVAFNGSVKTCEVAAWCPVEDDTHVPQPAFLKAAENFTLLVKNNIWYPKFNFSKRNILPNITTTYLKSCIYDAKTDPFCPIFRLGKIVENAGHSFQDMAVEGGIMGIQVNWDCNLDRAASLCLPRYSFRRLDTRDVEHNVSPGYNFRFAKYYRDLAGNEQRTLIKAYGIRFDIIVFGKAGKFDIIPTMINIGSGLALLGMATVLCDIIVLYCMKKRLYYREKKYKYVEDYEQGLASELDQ
Experiment: Human P2X4 HEK Cell FLIPR Assay
Format: cell-based
Details: agonist Bz-ATP at EC80; for Emax: HEK293, HEK293 cells, percentage of maximal inhibition, read-out: Human P2X4 HEK Cells (FLIPR Assay) avg Efficacy [%]; for IC50: HEK293 cells, individual values listed where some fall outside detection range
Summary of the method: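 HEK293 cells stably expressing human P2X4, Fluo8-AM loaded 30 min at 37° C, then compound 30 min at room temperature (0.5% DMSO, pH 7.4 buffer with 1.8 mM CaCl2). Bz-ATP at its daily-determined EC80 added; calcium fluorescence read over 120 sec; IC50 from peak RFU normalized to agonist control, triplicates.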

| SMILES | Emax | IC50 |
| --- | --- | --- |
| Cc1ccccc1CC(=O)Nc1ccc(-n2cc(C#N)cn2)c(S(N)(=O)=O)c1 [Example 197, N-[4-(4-Cyano-1H-pyrazol-1-yl)-3-sulfamoylphenyl]-2-(2-methylphenyl)acetamide] | 87% | 86 nM |
| CCOc1ccccc1CC(=O)Nc1ccc(-n2cc(C#N)cn2)c(S(N)(=O)=O)c1 [Example 199, N-[4-(4-Cyano-1H-pyrazol-1-yl)-3-sulfamoylphenyl]-2-(2-ethoxyphenyl)acetamide] | 85% | 299 nM |
| N#Cc1cnn(-c2ccc(NC(=O)Cc3cccc(F)c3F)cc2S(N)(=O)=O)c1 [Example 200, N-[4-(4-Cyano-1H-pyrazol-1-yl)-3-sulfamoylphenyl]-2-(2,3-difluorophenyl)acetamide] | 90% | 131 nM |
| N#Cc1cnn(-c2ccc(NC(=O)Cc3ccc(F)cc3Cl)cc2S(N)(=O)=O)c1 [Example 202, 2-(2-Chloro-4-fluorophenyl)-N-[4-(4-cyano-1H-pyrazol-1-yl)-3-sulfamoylphenyl]-acetamide] | 90% | 48 nM |
| N#Cc1cnn(-c2ccc(NC(=O)Cc3ccccc3OC(F)F)cc2S(N)(=O)=O)c1 [Example 203, N-[4-(4-Cyano-1H-pyrazol-1-yl)-3-sulfamoylphenyl]-2-[2-(difluoromethoxy)phenyl]-acetamide] | 86% | 99 nM |
| Cc1ccc(F)c(CC(=O)Nc2ccc(-n3cc(C#N)cn3)c(S(N)(=O)=O)c2)c1Cl [Example 207, 2-(2-Chloro-6-fluoro-3-methylphenyl)-N-[4-(4-cyano-1H-pyrazol-1-yl)-3-sulfamoylphenyl]acetamide] | 98% | 12 nM |
| N#Cc1cnn(-c2ccc(NC(=O)Cc3c(F)ccc(F)c3Cl)cc2S(N)(=O)=O)c1 [Example 208, 2-(2-Chloro-3,6-difluorophenyl)-N-[4-(4-cyano-1H-pyrazol-1-yl)-3-sulfamoylphenyl]-acetamide] | 91% | 33 nM |
| Cc1ccc(Cl)c(CC(=O)Nc2ccc(-n3cc(C#N)cn3)c(S(N)(=O)=O)c2)c1 [Example 209, 2-(2-Chloro-5-methylphenyl)-N-[4-(4-cyano-1H-pyrazol-1-yl)-3-sulfamoylphenyl]-acetamide] | 91% | 37 nM |
| N#Cc1cnn(-c2ccc(NC(=O)Cc3cc(Cl)ccc3Cl)cc2S(N)(=O)=O)c1 [Example 211, N-[4-(4-Cyano-1H-pyrazol-1-yl)-3-sulfamoylphenyl]-2-(2,5-dichlorophenyl)acetamide] | 94% | 75 nM |
| COc1ccc(Cl)cc1CC(=O)Nc1ccc(-n2cc(C#N)cn2)c(S(N)(=O)=O)c1 [Example 212, 2-(5-Chloro-2-methoxyphenyl)-N-[4-(4-cyano-1H-pyrazol-1-yl)-3-sulfamoylphenyl]-acetamide] | 86% | 149 nM |
| CC(C)c1ccccc1CC(=O)Nc1ccc(-n2cc(C#N)cn2)c(S(N)(=O)=O)c1 [Example 213, N-[4-(4-Cyano-1H-pyrazol-1-yl)-3-sulfamoylphenyl]-2-[2-(propan-2-yl)phenyl]-acetamide] | 93% | 47 nM |
| N#Cc1cnn(-c2ccc(NC(=O)Cc3cc(F)ccc3Cl)cc2S(N)(=O)=O)c1 [Example 214, 2-(2-Chloro-5-fluorophenyl)-N-[4-(4-cyano-1H-pyrazol-1-yl)-3-sulfamoylphenyl]-acetamide] | 86% | 36 nM |
| N#Cc1cnn(-c2ccc(NC(=O)Cc3c(Cl)cccc3C(F)(F)F)cc2S(N)(=O)=O)c1 [Example 215, 2-[2-Chloro-6-(trifluoromethyl)phenyl]-N-[4-(4-cyano-1H-pyrazol-1-yl)-3-sulfamoylphenyl]acetamide] | 95% | 38 nM |
| COc1cccc(Cl)c1CC(=O)Nc1ccc(-n2cc(C#N)cn2)c(S(N)(=O)=O)c1 [Example 216, 2-(2-Chloro-6-methoxyphenyl)-N-[4-(4-cyano-1H-pyrazol-1-yl)-3-sulfamoyl-phenyl]acetamide] | 101% | 96 nM |
| N#Cc1cnn(-c2ccc(NC(=O)Cc3c(F)cc(F)cc3Cl)cc2S(N)(=O)=O)c1 [Example 217, 2-(2-Chloro-4,6-difluorophenyl)-N-[4-(4-cyano-1H-pyrazol-1-yl)-3-sulfamoyl-phenyl]acetamide] | 84% | 51 nM |
| N#Cc1cnn(-c2ccc(NC(=O)Cc3ccncc3Cl)cc2S(N)(=O)=O)c1 [Example 218, 2-(3-Chloropyridin-4-yl)-N-[4-(4-cyano-1H-pyrazol*1-yl)-3-sulfamoyl-phenyl]acetamide] | 92% | 957 nM |
| N#Cc1cnn(-c2ccc(NC(=O)Cc3ccc(C(F)F)cc3)cc2S(N)(=O)=O)c1 [Example 219, N-[4-(4-Cyano-1H-pyrazol-1-yl)-3-sulfamoylphenyl]-2-[4-(difluoromethyl)-phenyl]acetamide] | 65% | 250 nM |

Other lines, results leading:

| Emax | IC50 | SMILES |
| --- | --- | --- |
| 75% | 164 nM | COc1ccc(CC(=O)Nc2ccc(-n3cc(C#N)cn3)c(S(N)(=O)=O)c2)cc1 [Example 196, N-[4-(4-Cyano-1H-pyrazol-1-yl)-3-sulfamoylphenyl]-2-(4-methoxyphenyl)acetamide] |
| 94% | 136 nM | Cc1cccc(CC(=O)Nc2ccc(-n3cc(C#N)cn3)c(S(N)(=O)=O)c2)c1 [Example 198, N-[4-(4-Cyano-1H-pyrazol-1-yl)-3-sulfamoylphenyl]-2-(3-methylphenyl)acetamide] |
| 83% | 4330 nM | N#Cc1cnn(-c2ccc(NC(=O)Cc3cccnc3Cl)cc2S(N)(=O)=O)c1 [Example 201, 2-(2-Chloropyridin-3-yl)-N-[4-(4-cyano-1H-pyrazol-1-yl)-3-sulfamoylphenyl]-acetamide] |
| 86% | 72 nM | N#Cc1cnn(-c2ccc(NC(=O)Cc3ccccc3OC(F)(F)F)cc2S(N)(=O)=O)c1 [Example 204, N-[4-(4-Cyano-1H-pyrazol-1-yl)-3-sulfamoylphenyl]-2-[2-(trifluoromethoxy)phenyl]-acetamide] |
| 89% | 73 nM | N#Cc1cnn(-c2ccc(NC(=O)Cc3cc(F)c(F)cc3Cl)cc2S(N)(=O)=O)c1 [Example 205, 2-(2-Chloro-4,5-difluorophenyl)-N-[4-(4-cyano-1H-pyrazol-1-yl)-3-sulfamoylphenyl]-acetamide] |
| 98% | 29 nM | N#Cc1cnn(-c2ccc(NC(=O)Cc3cccc(C(F)(F)F)c3Cl)cc2S(N)(=O)=O)c1 [Example 206, 2-[2-Chloro-3-(trifluoromethyl)phenyl]-N-[4-(4-cyano-1H-pyrazol-1-yl)-3-sulfamoylphenyl]acetamide] |
| 76% | 116 nM | COc1ccc(CC(=O)Nc2ccc(-n3cc(C#N)cn3)c(S(N)(=O)=O)c2)c(Cl)c1 [Example 210, 2-(2-Chloro-4-methoxyphenyl)-N-[4-(4-cyano-1H-pyrazol-1-yl)-3-sulfamoylphenyl]-acetamide] |
| 108% | 276 nM | N#Cc1cnn(-c2ccc(NC(=O)C(F)(F)c3ccccc3Cl)cc2S(N)(=O)=O)c1 [Example 220, 2-(2-Chlorophenyl)-N-[4-(4-cyano-1H-pyrazol-1-yl)-3-sulfamoylphenyl]-2,2-difluoroacetamide] |

Source: patent publication US11524938B2, “Aromatic sulfonamide derivatives” (Bayer Pharma Aktiengesellschaft, priority 2016, dated 2022)
